“And” between values parts separate entries of the source, which are not always exact repeats. Equal entries are not always repeated. Toxic doses and inconclusive results are not listed. The calls were made as follows: active = survival T/C of 150% or more; inactive = T/C below 125% in these data.
Test system: BDF1 mice, P388 leukemia ip, median survival T/C
Test: NCI In Vivo Anticancer Drug Screen. Data for tumor model P388 Leukemia (intraperitoneal) in B6D2F1 (BDF1) mice
Conditions: endpoint: median survival time, higher = longer survival
In short: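 Compound-treated tumour-bearing mice were compared with vehicle-treated controls. Survival was recorded, and the value is the treated-group measurement divided by the control-group measurement (T/C).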

[1] = dose: 6.25 mg/kg/injection, schedule: Q01DX009 (ip), vehicle: saline
[2] = dose: 50.0 mg/kg/injection, schedule: Q01DX009 (ip), vehicle: saline with Tween-80
[3] = dose: 12.5 mg/kg/injection, schedule: Q01DX009 (ip), vehicle: saline with Tween-80
[4] = dose: 25.0 mg/kg/injection, schedule: Q01DX009 (ip), vehicle: saline with Tween-80
[5] = dose: 100.0 mg/kg/injection, schedule: Q01DX009 (ip), vehicle: saline with Tween-80
[6] = dose: 200.0 mg/kg/injection, schedule: Q01DX009 (ip), vehicle: saline with Tween-80
[7] = dose: 400.0 mg/kg/injection, schedule: Q04DX003 (ip), vehicle: saline with Tween-80

Measured: T/C

CC1B(O)Nc2nc(=S)[nH]c(N)c21 (centres undefined)
inactive: dose: 50.0 mg/kg/injection, schedule: Q04DX003 (ip), vehicle: saline sonified 100 % of control | dose: 100.0 mg/kg/injection, schedule: Q04DX003 (ip), vehicle: saline sonified 100 % of control | dose: 200.0 mg/kg/injection, schedule: Q04DX003 (ip), vehicle: saline sonified 100 % of control

C=C1C[C@H]2[C@@H]3C=C(C)C4=CC(=O)CC[C@]4(C)[C@H]3CC[C@]2(C)[C@@]1(OC(C)=O)C(C)=O
inactive: dose: 62.5 mg/kg/injection, schedule: Q01DX010 (sc), vehicle: steriod suspending solution 105 % of control | dose: 125.0 mg/kg/injection, schedule: Q01DX010 (sc), vehicle: steriod suspending solution 110 % of control | dose: 250.0 mg/kg/injection, schedule: Q01DX010 (sc), vehicle: steriod suspending solution 100 % of control | dose: 500.0 mg/kg/injection, schedule: Q01DX010 (sc), vehicle: steriod suspending solution 110 % of control

C=CC=O
inactive: dose: 0.45 mg/kg/injection, schedule: Q01DX009 (ip), vehicle: saline 100 % of control | dose: 0.45 mg/kg/injection, schedule: Q04DX003 (ip), vehicle: saline 109 % of control | dose: 0.9 mg/kg/injection, schedule: Q01DX009 (ip), vehicle: saline 108 % of control | dose: 0.9 mg/kg/injection, schedule: Q04DX003 (ip), vehicle: saline 100 % of control | dose: 1.8 mg/kg/injection, schedule: Q01DX009 (ip), vehicle: saline 112 % of control | dose: 1.8 mg/kg/injection, schedule: Q04DX003 (ip), vehicle: saline 109 % of control | [1] 109 % of control | dose: 6.25 mg/kg/injection, schedule: Q04DX003 (ip), vehicle: saline 104 % of control | dose: 12.5 mg/kg/injection, schedule: Q04DX003 (ip), vehicle: saline 100 % of control

N#Cc1ccc(S(N)(=O)=O)cc1
inactive: dose: 12.5 mg/kg/injection, schedule: Q04DX003 (ip), vehicle: Klucel (hydroxypropylcellulose) (HPC) 109 % of control | dose: 25.0 mg/kg/injection, schedule: Q01DX009 (ip), vehicle: Klucel (hydroxypropylcellulose) (HPC) 111 % of control | dose: 25.0 mg/kg/injection, schedule: Q04DX003 (ip), vehicle: Klucel (hydroxypropylcellulose) (HPC) 109 % of control | dose: 50.0 mg/kg/injection, schedule: Q01DX009 (ip), vehicle: Klucel (hydroxypropylcellulose) (HPC) 111 % of control | [2] 100 % of control | dose: 50.0 mg/kg/injection, schedule: Q04DX003 (ip), vehicle: Klucel (hydroxypropylcellulose) (HPC) 104 % of control | dose: 100.0 mg/kg/injection, schedule: Q01DX009 (ip), vehicle: Klucel (hydroxypropylcellulose) (HPC) 111 % of control

CN1CCN(C2=Nc3ccccc3Cc3ccccc32)CC1
inactive: [3] 103 % of control | [4] 102 % of control | [2] 105 % of control and 108 % of control

O=C(O)c1ccc(-c2ccc(C(=O)O)cc2I)c(I)c1
inactive: [2] 100 % of control | [5] 96 % of control | dose: 100.0 mg/kg/injection, schedule: Q04DX003 (ip), vehicle: saline with Tween-80 100 % of control | [6] 96 % of control | dose: 200.0 mg/kg/injection, schedule: Q04DX003 (ip), vehicle: saline with Tween-80 100 % of control | [7] 95 % of control

COC1C(OC(=O)c2ccc(C)[nH]2)C(O)C(Oc2ccc3c(O)c(NC(=O)c4ccc(O)c(CC=C(C)C)c4)c(=O)oc3c2Cl)OC1(C)C (centres undefined)
inactive: dose: 50.0 mg/kg/injection, schedule: Q01DX009 (ip), vehicle: other 106 % of control | dose: 100.0 mg/kg/injection, schedule: Q01DX009 (ip), vehicle: other 104 % of control | dose: 200.0 mg/kg/injection, schedule: Q01DX009 (ip), vehicle: other 115 % of control

OCCN1CCNC1=S
inactive: dose: 100.0 mg/kg/injection, schedule: Q04DX003 (ip), vehicle: saline 95 % of control | dose: 200.0 mg/kg/injection, schedule: Q04DX003 (ip), vehicle: saline 91 % of control | dose: 400.0 mg/kg/injection, schedule: Q04DX003 (ip), vehicle: saline 91 % of control

O=C(Nc1ccccc1)C1(Br)CC2(C1)CC(Br)(C(=O)Nc1ccccc1)C2 (centres undefined)
inactive: dose: 100.0 mg/kg/injection, schedule: Q01DX001 (ip), vehicle: saline with Tween-80 92 % of control | dose: 200.0 mg/kg/injection, schedule: Q01DX001 (ip), vehicle: saline with Tween-80 99 % of control

CCOC(=O)C1OC(n2cnc3c(N)ncnc32)C(O)C1O (centres undefined)
inactive: [1] 103 % of control | dose: 12.5 mg/kg/injection, schedule: Q01DX009 (ip), vehicle: saline 94 % of control | dose: 25.0 mg/kg/injection, schedule: Q01DX009 (ip), vehicle: saline 94 % of control | dose: 50.0 mg/kg/injection, schedule: Q01DX009 (ip), vehicle: saline 92 % of control

COc1cc2ccc3c4cc5c(cc4cnc3c2cc1OC)OCO5
inactive: [3] 109 % of control and 119 % of control | dose: 12.5 mg/kg/injection, schedule: Q04DX003 (ip), vehicle: saline with Tween-80 102 % of control | [4] 106 % of control | dose: 25.0 mg/kg/injection, schedule: Q04DX003 (ip), vehicle: saline with Tween-80 100 % of control | [2] 106 % of control | dose: 50.0 mg/kg/injection, schedule: Q04DX003 (ip), vehicle: saline with Tween-80 92 % of control | [5] 99 % of control and 100 % of control and 114 % of control | [6] 107 % of control and 111 % of control | dose: 400.0 mg/kg/injection, schedule: Q01DX009 (ip), vehicle: saline with Tween-80 101 % of control and 124 % of control | [7] 92 % of control

Source: PubChem BioAssay AID328 (DTP/NCI, 2004)
